The values below come from patent EP4600258A1, “KERATIN YK93-6, PREPARATION METHOD THEREFOR, PHARMACEUTICAL COMPOSITION THEREOF, AND USE THEREOF” (INSTITUTE OF MATERIA MEDICA, CHINESE ACADEMY OF MEDICAL …, priority 2022, dated 2024).

One data set has as its system mouse pain model. Briefly: Pharmacodynamic test on mouse pain model (acetic acid-induced writhing). Format: in vivo, Male Kunming mice. The conditions noted are these: dose 50mg/kg; writhing within 15 minutes after 1% acetic acid intraperitoneally.
A further data set deals with EL-4 lymphoma. The conditions noted are these: single time.
The mark [1] stands for this setting: 100 mg/kg intraperitoneal, blood routine test, P<0.05.

Counter-ions that a name gives are not always drawn.

Protocol for EL-4 lymphoma: Subcutaneous inoculation of EL-4 cell suspension to replicate a mouse lymphoma model: The EL-4 tumor tissue was ground into a suspension using a glass homogenizer, the tumor suspension was aspirated with a syringe, the number of live cells was calculated, the cell concentration was adjusted to 2.0*10^6/ml with physiological saline, and then the suspension was injected into the left armpit of mice with 0.2 ml/mouse. […] On the day of treatment, weight was measured, 20µl of blood was obtained from the orbital blood and the routine blood analysis was performed.
The data from the groups were compared with each other by T.TEST, and P<0.05 was considered as a significant difference.

In the data set with mouse pain model, `COc1cccc(C2(O)CCCCC2CN(C)C)c1` (stereo not drawn) [Tramadol Hydrochloride] displayed a Number of writhing of 0.375±0.74.
In the case of `O=P1(N(CCCl)CCCl)NCCCO1` (stereo not drawn) [cyclophosphamide, Cyclophosphamide], in the data set on EL-4 lymphoma (setting [1]), the leukocytes entry is “significantly reduced”, the lymphocytes entry is on record as “significantly reduced”, the monocytes entry is “significantly reduced” and the neutrophils result was “significantly reduced”. In the data set with EL-4 lymphoma (dose 0.1 g/kg, intraperitoneal), the Tumor weight amounted to 0.12 ± 0.03 g.
